We go through 5 compounds from PubChem BioAssay AID1745844 (Carcinogenic Potency Database (CPDB), 2022).

For the data set, the system named is rodent lifetime carcinogenesis bioassay, tumor incidence TD50. Nature of the data set: chronic cancer bioassays in animals – CPDB, compiled studies (AID 1745844).

Each structure is given as a SMILES string. The source made the active and inactive calls. How the calls were made is not given here.

Broadly, the TD50 is the dose at which the toxic effect under study appears in half of the subjects. In the case of `FC(F)(F)C(Cl)Cl`, the TD50 is, setting by setting: (rat, strain Charles River CD (Sprague-Dawley), females, inhaled, site: liver, lesion: cholangiofibroma, dosed 105 weeks, study length 105 weeks) 22700 mg/kg/day; (rat, strain Charles River CD (Sprague-Dawley), females, inhaled, site: liver, lesion: hepatocellular adenoma, dosed 105 weeks, study length 105 weeks) 20300 mg/kg/day; (rat, strain Charles River CD (Sprague-Dawley), females, inhaled, site: pancreas, lesion: acinar-cell adenoma, dosed 105 weeks, study length 105 weeks) 92100 mg/kg/day; (rat, strain Charles River CD (Sprague-Dawley), males, inhaled, site: liver, lesion: hepatocellular adenoma, dosed 105 weeks, study length 105 weeks) 13100 mg/kg/day; (rat, strain Charles River CD (Sprague-Dawley), males, inhaled, site: pancreas, lesion: acinar-cell adenoma, dosed 105 weeks, study length 105 weeks) 1260 mg/kg/day; (rat, strain Charles River CD (Sprague-Dawley), males, inhaled, site: pancreas, lesion: acinar-cell carcinoma, dosed 105 weeks, study length 105 weeks) 60800 mg/kg/day. Also, where the note is “rat, strain Charles River CD (Sprague-Dawley), males, inhaled, site: testis, lesion: interstitial-cell adenoma, dosed 105 weeks, study length 105 weeks”, the TD50 was 9050 mg/kg/day.
As for `[O-][Cl+]O`, the TD50 runs as follows: (mouse, strain B6C3F1, females, in drinking water, site: liver, lesion: several types, types named in the paper, dosed 85 weeks, study length 85 weeks) 3060 mg/kg/day; (mouse, strain B6C3F1, males, in drinking water, site: any site (literature study), lesion: several types, types named in the paper, dosed 85 weeks, study length 85 weeks) 169 mg/kg/day; (mouse, strain B6C3F1, males, in drinking water, site: liver, lesion: hyperplastic nodule, dosed 85 weeks, study length 85 weeks) 146 mg/kg/day; (mouse, strain B6C3F1, males, in drinking water, site: liver, lesion: several types, types named in the paper, dosed 85 weeks, study length 85 weeks) 110 mg/kg/day; (mouse, strain B6C3F1, males, in drinking water, site: lung, lesion: adenoma, dosed 85 weeks, study length 85 weeks) 346 mg/kg/day; (mouse, strain B6C3F1, males, in drinking water, site: lung, lesion: several types, types named in the paper, dosed 85 weeks, study length 85 weeks) 237 mg/kg/day. Besides, the carcinogen call runs as follows: (rat, strain Fischer 344, females, in drinking water, site: any site (literature study), lesion: several types, types named in the paper, dosed 85 weeks, study length 85 weeks) “negative (inactive)”; (rat, strain Fischer 344, males, in drinking water, site: any site (literature study), lesion: several types, types named in the paper, dosed 85 weeks, study length 85 weeks) “negative (inactive)”.
As for `[CH3][Hg][Cl]`, the TD50 is, setting by setting: (mouse, strain B6C3F1, females, in feed, site: kidney, lesion: renal-cell adenoma, dosed 104 weeks, study length 104 weeks) 65.8 mg/kg/day; (mouse, strain B6C3F1, males, in feed, site: kidney, lesion: renal-cell adenoma, dosed 104 weeks, study length 104 weeks) 9.83 mg/kg/day; (mouse, strain B6C3F1, males, in feed, site: kidney, lesion: renal-cell carcinoma, dosed 104 weeks, study length 104 weeks) 4.28 mg/kg/day; (mouse, strain B6C3F1, males, in feed, site: kidney, lesion: several types, types named in the paper, dosed 104 weeks, study length 104 weeks) 3.19 mg/kg/day; (mouse, strain Charles River CD1, females, in drinking water, site: any site (literature study), lesion: several types, types named in the paper, dosed 143 weeks, study length 151 weeks) 2.13 mg/kg/day (inactive); (mouse, strain Charles River CD1, males, in drinking water, site: any site (literature study), lesion: malignant tumor, dosed 135 weeks, study length 159 weeks) 9.64 mg/kg/day (inactive). In addition, the TD50 by setting is: (mouse, strain Charles River CD1, males, in drinking water, site: any site (literature study), lesion: several types, types named in the paper, dosed 135 weeks, study length 159 weeks) 5.63 mg/kg/day (inactive); (mouse, strain ICR, females, in feed, site: liver, lesion: hemangioma, dosed 80 weeks, study length 80 weeks) 26.1 mg/kg/day (inactive); (mouse, strain ICR, females, in feed, site: lung, lesion: adenocarcinoma, dosed 80 weeks, study length 80 weeks) 11.6 mg/kg/day (inactive); (mouse, strain ICR, males, in feed, site: kidney, lesion: adenocarcinoma, dosed 78 weeks, study length 78 weeks) 3.2 mg/kg/day; (mouse, strain ICR, males, in feed, site: kidney, lesion: adenocarcinoma, dosed 80 weeks, study length 80 weeks) 1.48 mg/kg/day; (mouse, strain ICR, males, in feed, site: kidney, lesion: adenocarcinoma, dosed 102 weeks, study length 104 weeks) 1.88 mg/kg/day. The TD50 (mouse, strain ICR, males, in feed, site: kidney, lesion: adenoma, dosed 80 weeks, study length 80 weeks) was 24.1 mg/kg/day; the TD50 (mouse, strain ICR, males, in feed, site: kidney, lesion: several types, types named in the paper, dosed 78 weeks, study length 78 weeks) was 0.896 mg/kg/day; the TD50 (mouse, strain ICR, males, in feed, site: kidney, lesion: several types, types named in the paper, dosed 80 weeks, study length 80 weeks) was 1.36 mg/kg/day; the TD50 (mouse, strain ICR, males, in feed, site: kidney, lesion: several types, types named in the paper, dosed 102 weeks, study length 104 weeks) is 1.69 mg/kg/day; the TD50 (mouse, strain ICR, males, in feed, site: lung, lesion: adenocarcinoma, dosed 80 weeks, study length 80 weeks) worked out at 5.1 mg/kg/day; the TD50 (rat, strain Sprague-Dawley, females, in feed, site: kidney, lesion: adenoma, dosed 130 weeks, study length 130 weeks) is 15.7 mg/kg/day (inactive). Besides, the carcinogen call (mouse, strain Charles River CD1, females, in drinking water, site: any site (literature study), lesion: malignant tumor, dosed 143 weeks, study length 151 weeks) is “negative (inactive)”; the carcinogen call (mouse, strain Charles River CD1, females, in drinking water, site: lung, lesion: one or several types, types not named, dosed 143 weeks, study length 151 weeks) is “negative (inactive)”; the carcinogen call (mouse, strain Charles River CD1, males, in drinking water, site: lung, lesion: one or several types, types not named, dosed 135 weeks, study length 159 weeks) was “negative (inactive)”; the carcinogen call (mouse, strain ICR, females, in feed, site: kidney, lesion: adenoma, dosed 80 weeks, study length 80 weeks) was “negative (inactive)”; the carcinogen call (mouse, strain ICR, females, in feed, site: kidney, lesion: one or several types, types not named, dosed 52 weeks, study length 52 weeks) is “negative (inactive)”; the carcinogen call (mouse, strain ICR, females, in feed, site: kidney, lesion: one or several types, types not named, dosed 78 weeks, study length 78 weeks) is “negative (inactive)”. Moreover, the carcinogen call by setting is: (mouse, strain ICR, females, in feed, site: kidney, lesion: one or several types, types not named, dosed 104 weeks, study length 104 weeks) “negative (inactive)”; (mouse, strain ICR, females, in feed, site: liver, lesion: hepatocellular adenoma, dosed 80 weeks, study length 80 weeks) “negative (inactive)”; (mouse, strain ICR, females, in feed, site: liver, lesion: hepatocellular carcinoma, dosed 80 weeks, study length 80 weeks) “negative (inactive)”; (mouse, strain ICR, females, in feed, site: lung, lesion: adenoma, dosed 80 weeks, study length 80 weeks) “negative (inactive)”; (rat, strain Sprague-Dawley, females, in feed, site: liver, lesion: one or several types, types not named, dosed 52 weeks, study length 52 weeks) “negative (inactive)”; (rat, strain Sprague-Dawley, females, in feed, site: liver, lesion: one or several types, types not named, dosed 78 weeks, study length 78 weeks) “negative (inactive)”. In addition, the carcinogen call (rat, strain Sprague-Dawley, females, in feed, site: liver, lesion: one or several types, types not named, dosed 130 weeks, study length 130 weeks) was “negative (inactive)”; the carcinogen call (rat, strain Sprague-Dawley, males, in feed, site: liver, lesion: one or several types, types not named, dosed 52 weeks, study length 52 weeks) was “negative (inactive)”; the carcinogen call (rat, strain Sprague-Dawley, males, in feed, site: liver, lesion: one or several types, types not named, dosed 78 weeks, study length 78 weeks) is “negative (inactive)”; the carcinogen call (rat, strain Sprague-Dawley, males, in feed, site: liver, lesion: one or several types, types not named, dosed 130 weeks, study length 130 weeks) was “negative (inactive)”; the carcinogen call (rat, strain Wistar, females, in feed, site: liver, lesion: one or several types, types not named, dosed 104 weeks, study length 104 weeks) was “negative (inactive)”; the carcinogen call (rat, strain Wistar, males, in feed, site: liver, lesion: one or several types, types not named, dosed 104 weeks, study length 104 weeks) was “negative (inactive)”.
For `CN(C)P(=O)(N(C)C)N(C)C`, the TD50 by setting is: (rat, strain Charles River CD (Sprague-Dawley), both sexes, inhaled, site: nasal cavity, adenoid, lesion: squamous-cell carcinoma, dosed 53 weeks, study length 104 weeks) 0.519 mg/kg/day; (rat, strain Charles River CD (Sprague-Dawley), both sexes, inhaled, site: nasal cavity, adenoid, lesion: squamous-cell carcinoma, dosed 72 weeks, study length 104 weeks) 0.608 mg/kg/day; (rat, strain Charles River CD (Sprague-Dawley), both sexes, inhaled, site: nasal cavity, lesion: epidermoid carcinoma, dosed 53 weeks, study length 104 weeks) 0.0581 mg/kg/day; (rat, strain Charles River CD (Sprague-Dawley), both sexes, inhaled, site: nasal cavity, lesion: epidermoid carcinoma, dosed 72 weeks, study length 104 weeks) 0.0456 mg/kg/day; (rat, strain Charles River CD (Sprague-Dawley), both sexes, inhaled, site: nasal cavity, lesion: malignant tumor, dosed 53 weeks, study length 104 weeks) 0.0416 mg/kg/day; (rat, strain Charles River CD (Sprague-Dawley), both sexes, inhaled, site: nasal cavity, lesion: malignant tumor, dosed 72 weeks, study length 104 weeks) 0.0387 mg/kg/day. The TD50 is, setting by setting: (rat, strain Charles River CD (Sprague-Dawley), both sexes, inhaled, site: nasal cavity, lesion: several types, types named in the paper, dosed 53 weeks, study length 104 weeks) 0.0345 mg/kg/day; (rat, strain Charles River CD (Sprague-Dawley), both sexes, inhaled, site: nasal cavity, lesion: several types, types named in the paper, dosed 72 weeks, study length 104 weeks) 0.0344 mg/kg/day.
Take `Nc1nnc(-c2ccc([N+](=O)[O-])o2)o1`: the TD50 is 2.74 mg/kg/day (rat, strain Sprague-Dawley, females, in feed, site: any site (literature study), lesion: several types, types named in the paper, dosed 46 weeks, study length 66 weeks); 37 mg/kg/day (rat, strain Sprague-Dawley, females, in feed, site: forestomach, lesion: squamous-cell papilloma, dosed 46 weeks, study length 66 weeks); 45.2 mg/kg/day (rat, strain Sprague-Dawley, females, in feed, site: kidney/pelvis, lesion: transitional-cell carcinoma, dosed 46 weeks, study length 66 weeks); 242 mg/kg/day (rat, strain Sprague-Dawley, females, in feed, site: lung, lesion: alveolar-cell carcinoma, dosed 46 weeks, study length 66 weeks); 7.98 mg/kg/day (rat, strain Sprague-Dawley, females, in feed, site: mammary gland, lesion: adenocarcinoma, dosed 46 weeks, study length 66 weeks); 3.67 mg/kg/day (rat, strain Sprague-Dawley, females, in feed, site: mammary gland, lesion: several types, types named in the paper, dosed 46 weeks, study length 66 weeks).
